pIC50: −log10 of the molar value.
Assays:
Type in all cases: cell-based
human PGD receptor = biological target: T1, human PGD receptor (Homo sapiens, UniProt Q13258); experiment: cAMP antagonism test on the human prostaglandin D receptor (HTRF cAMP detection); conditions: selectivity towards hDP, IC50 measured by cAMP antagonism test
T1 sequence (Q13258 1-359): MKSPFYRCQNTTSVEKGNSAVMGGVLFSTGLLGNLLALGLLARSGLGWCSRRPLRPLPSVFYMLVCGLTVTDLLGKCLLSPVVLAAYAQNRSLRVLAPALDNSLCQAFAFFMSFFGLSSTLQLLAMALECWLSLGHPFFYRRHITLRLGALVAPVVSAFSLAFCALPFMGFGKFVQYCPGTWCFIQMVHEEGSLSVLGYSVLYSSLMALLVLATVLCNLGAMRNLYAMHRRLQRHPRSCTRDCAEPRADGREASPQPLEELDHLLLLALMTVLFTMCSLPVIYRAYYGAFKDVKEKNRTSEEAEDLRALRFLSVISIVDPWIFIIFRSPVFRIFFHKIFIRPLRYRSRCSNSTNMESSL
How it was run: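 Cells pre-mixed with cAMP-d2 were preincubated with compound (0.8 nM–16.5 μM) for 20 min at RT, then stimulated with 3× PGD2 solution (6 nM, in PBS-IBMX) for 30 min at RT. After lysis (20 min), HTRF read at 665/620 nm; antagonism seen as rise in FRET ratio.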

[1] = biological target: EP4 subtype of the human PGE2 receptor (Homo sapiens, UniProt P35408); experiment: cAMP antagonism test on the human EP4 receptor (HTRF cAMP detection); conditions: selectivity towards hEP4, IC50 measured by cAMP antagonism test
How it was run: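 Cells expressing human EP4 preincubated 20 min at RT with compound (0.8 nM–16.5 μM), then stimulated with PGE2 (0.3 nM in 3× solution, with IBMX) 60 min at RT. After lysis, cAMP measured by HTRF competition (665/620 nm ratio); antagonism seen as rise in FRET signal.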

[2] = biological target: EP2 subtype of the human PGE2 receptor (Homo sapiens, UniProt P43116); experiment: cAMP antagonism test on the human EP2 receptor (HTRF cAMP detection); conditions: hEP2 receptor, read-out: Antagonism hEP2 IC50
How it was run: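 Cells expressing human EP2 preincubated 20 min at RT with compound (0.8 nM–16.5 μM), then stimulated 60 min with PGE2 (3× solution 1.5 nM) in PBS-IBMX. After 20 min lysis, cAMP measured by competitive HTRF with cAMP-d2 and Eu cryptate anti-cAMP antibody (665/620 nm ratio).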

Sequence of EP4 subtype of the human PGE2 receptor (P35408 whole entry): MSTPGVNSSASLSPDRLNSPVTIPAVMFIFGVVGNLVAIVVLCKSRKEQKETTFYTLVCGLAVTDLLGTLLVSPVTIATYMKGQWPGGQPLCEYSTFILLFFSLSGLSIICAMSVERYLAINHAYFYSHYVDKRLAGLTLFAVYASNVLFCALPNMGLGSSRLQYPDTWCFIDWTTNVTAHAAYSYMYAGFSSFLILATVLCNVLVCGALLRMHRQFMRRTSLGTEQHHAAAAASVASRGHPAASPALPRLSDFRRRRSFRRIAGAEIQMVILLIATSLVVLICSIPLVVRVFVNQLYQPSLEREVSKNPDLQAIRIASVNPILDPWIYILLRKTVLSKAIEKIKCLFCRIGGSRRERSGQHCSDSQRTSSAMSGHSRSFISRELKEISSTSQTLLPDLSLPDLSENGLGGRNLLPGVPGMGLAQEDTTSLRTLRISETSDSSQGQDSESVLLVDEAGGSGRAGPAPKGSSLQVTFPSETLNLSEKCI
Sequence of EP2 subtype of the human PGE2 receptor (P43116 whole entry): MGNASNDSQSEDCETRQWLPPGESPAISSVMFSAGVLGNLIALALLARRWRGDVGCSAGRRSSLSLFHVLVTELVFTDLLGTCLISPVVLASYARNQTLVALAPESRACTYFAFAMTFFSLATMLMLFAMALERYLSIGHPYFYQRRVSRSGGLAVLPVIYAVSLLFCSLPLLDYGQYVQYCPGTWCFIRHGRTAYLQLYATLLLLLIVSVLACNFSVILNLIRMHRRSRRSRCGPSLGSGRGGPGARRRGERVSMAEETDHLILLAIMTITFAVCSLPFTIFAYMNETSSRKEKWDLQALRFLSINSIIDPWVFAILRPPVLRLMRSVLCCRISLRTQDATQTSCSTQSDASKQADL

Structure (SMILES)	Selectivity hEP2/hDP (human PGD receptor)	Selectivity hEP2/hEP4 [1]	pIC50 [2]
Cc1c(C(=O)NCC(F)(F)F)ccc2nn(CC3CCN(C(=O)c4cc5ccccc5n4C)CC3)cc12 [Example 290, 4-methyl-2-({1-[(1-methyl-1H-indol-2-yl)carbonyl]piperidin-4-yl}methyl)-N-(2,2,2-trifluoroethyl)-2H-indazol-5-carboxamide]	xxx (xxx > 100)	xxx (xxx > 100)	7.37
COCCNC(=O)c1ccc2nn(CC3CCN(C(=O)c4cn(C)c5ccccc45)CC3)cc2c1OC [Example 273, 4-methoxy-N-(2-methoxyethyl)-2-({1-[(1-methyl-1H-indol-3-yl)carbonyl]-piperidin-4-yl}methyl)-2H-indazol-5-carboxamide]	xxx (xxx > 100)	xxx (xxx > 100)	7.73
Cc1c(C(=O)NCC2CC2)ccc2nn(CC3CCN(C(=O)c4ccc(Cl)cc4)CC3)cc12 [Example 402, 2-{[1-(4-chlorobenzoyl)piperidin-4-yl]methyl}-N-(cyclopropylmethyl)-4-methyl-2H-indazol-5-carboxamide]	xxx (xxx > 100)	xxx (xxx > 100)	7.11
COCCNC(=O)c1ccc2nn(CC3CCN(C(=O)c4ccc(-c5ccc(C#N)cc5C)cc4)CC3)cc2c1C [Example 367, 2-({1-[(4′-cyano-2′-methylbiphenyl-4-yl)carbonyl]piperidin-4-yl}methyl)-N-(2-methoxyethyl)-4-methyl-2H-indazol-5-carboxamide]	xxx (xxx > 100)	xxx (xxx > 100)	8.23
COCCNC(=O)c1ccc2nn(CC3CN(C(=O)c4ccc(-c5ccc(F)cc5)cc4)C3)cc2c1C [Example 158, 2-({1-[(4′-fluorobiphenyl-4-yl)carbonyl]azetidin-3-yl}methyl)-N-(2-methoxy-ethyl)-4-methyl-2H-indazol-5-carboxamide]	xxx (xxx > 100)	xxx (xxx > 100)	8.21
Cc1c(C(=O)NCCOCC(F)(F)F)ccc2nn(CC3CCN(C(=O)c4ccc(Oc5ccc(F)cc5)cc4)CC3)cc12 [Example 92, 2-({1-[4-(4-fluoro-phenoxy)benzoyl]-piperidin-4-yl}-methyl)-4-methyl-N-[2-(2,2,2-tri-fluoroethoxy)ethyl]-2H-indazol-5-carboxamide]	xxx (xxx > 100)	xxx (xxx > 100)	7.90
CCOc1c(C(=O)NCCOC)ccc2nn(CC3CN(C(=O)c4ccc(Cl)cc4)C3)cc12 [Example 276, 2-{[1-(4-chlorobenzoyl)azetidin-3-yl]methyl}-4-ethoxy-N-(2-methoxyethyl)-2H-indazol-5-carboxamide]	xx (xx: 10-100)	xx (xx: 10-100)	6.65
COCCNC(=O)c1ccc2nn(CC3CCN(C(=O)c4ccc(-c5cc(F)cc(F)c5)cc4)CC3)cc2c1C [Example 389, 2-({1-[(3′,5′-difluorobiphenyl-4-yl)carbonyl]piperidin-4-yl}methyl)-N-(2-methoxyethyl)-4-methyl-2H-indazol-5-carboxamide]	xxx (xxx > 100)	xxx (xxx > 100)	8.35
COCCNC(=O)c1ccc2nn(CC3CCN(C(=O)c4ccc(-c5ccc(F)cc5F)cc4)CC3)cc2c1C [Example 48, 2-({1-[(2′,4′-difluoro-biphenyl-4-yl)-carbonyl]piperidin-4-yl}methyl)-N-(2-methoxyethyl)-4-methyl-2H-indazol-5-carboxamide]	xxx (xxx > 100)	xxx (xxx > 100)	8.25
COc1ccc(-c2ccc(C(=O)N3CCC(Cn4cc5c(C)c(C(=O)NCC(F)(F)F)ccc5n4)CC3)cc2)c(C)c1 [Example 318, 2-({1-[(4′-methoxy-2′-methylbiphenyl-4-yl)carbonyl]piperidin-4-yl}methyl)-4-methyl-N-(2,2,2-trifluoroethyl)-2H-indazol-5-carboxamide]	xxx (xxx > 100)	xxx (xxx > 100)	7.58
